Reference: patent publication US7094400B1, “Transkaryotic implantation” (Shire Human Genetic Therapies, Inc., priority 1987, dated 2006)

Legend:
[1] = tested on: Transfected cells which expressed human growth hormone; experiment: Effects of immunosuppression on IP cells, serum human growth hormone; type: in vivo; settings: for serum human growth hormone: in ng/mL
Text: If the transfected cells are destroyed by transplant rejection, immunosuppression should prolong the functional life of the implant.

[2] = tested on: mouse metallothionein-I promoter; experiment: Zinc induction of hGH expression from intraperitoneally implanted cells (metallothionein-I promoter); type: in vivo, mice; settings: 76 mM ZnSO4 in drinking water; IP stably transfected cells
Method: As described above, the plasmid pXGH5 contains the mouse metallothionein-I promoter. In order to determine whether the implanted cells were sufficiently healthy to respond to their local environment, the ability of zinc to induce higher levels of human growth hormone expression was determined. Stably transfected cells, prepared as described in Example 1B, were implanted intraperitoneally in mice, some of which were given 76 mM ZnSO4 in their drinking water. The animals treated with zinc expressed ten-fold more human growth hormone in their serum than did those with no treatment. […] Furthermore, RNA prepared from cells recovered from subcapsular implants contained the correct mMT-I/human growth hormone fusion mRNA (FIG. 5). […] Of substantial importance is the fact that the cells, once in place in the animal, could still be modulated by external means.

C[C@@H]1C[C@H]2[C@@H]3CCC4=CC(=O)C=C[C@]4(C)[C@@]3(F)[C@@H](O)C[C@]2(C)[C@@]1(O)C(=O)CO [Dexamethasone, dexamethasone]
serum human growth hormone detectable until [1]: 48 days post-implantation | serum human growth hormone ([1]; day 1 post-implantation): 94.8 +/− 9.2 | serum human growth hormone ([1]; day 2 post-implantation): 86.6 +/− 10.5 | serum human growth hormone ([1]; day 4 post-implantation): 54.3 +/− 14.2 | serum human growth hormone ([1]; day 21 post-implantation): 28.0 +/− 13.6 | serum human growth hormone ([1]; day 27 post-implantation): 13.9 +/− 6.9 | serum human growth hormone ([1]; day 41 post-implantation): 7.5 +/− 6.1 | serum human growth hormone ([1]; day 48 post-implantation): 2.7 +/− 2.2 | serum human growth hormone ([1]; days 8 to 10 post-implantation): 99.3 +/− 48.0 | serum human growth hormone ([1]; days 15 to 17 post-implantation): 28.3 +/− 18.1

O=S(=O)([O-])[O-].[Zn+2] [ZnSO4]
human growth hormone in serum versus no treatment [2]: ten-fold more
